In patent US12398124B2, “Pyrrolobenzodiazepine dimer prodrug and ligand-linker conjugate compound of the same” (priority 2017, dated 2025):
Read-outs that look alike come from different tables or passages of the source. Where a SMILES comes first, the peptide text is derived from it. [ ]: non-standard residue; d: D form. Dolaproine = CO[C@@H]([C@@H]1CCCN1)[C@@H](C)C(=O)O; Dil = CC[C@H](C)[C@H](NC)[C@@H](CC(=O)O)OC; NMeV = CN[C@H](C(=O)O)C(C)C

Experiments:
Test in all cases: Cytotoxicity in vitro (cell proliferation inhibition, SRB dye)
Format in all cases: cell-based, human
SK-BR3 (HER2 positive) = conditions: SK-BR3 breast cancer cells
Method: (§1) The cell proliferation inhibitory activity of the drug and ADCs presented in the following Table 2 on cancer cell lines was measured. As the cancer cell lines, commercially available human breast cancer cell lines MCF-7 (HER2 negative to normal), SK-BR3 (HER2 positive), and JIMT-1 (HER2 positive) were used. MMAF-OMe was used as the drug and the ADCs in Table 1 were used as the ADC. Each of the cancer cell lines was seeded in a 96-well plate by from 5,000 to 13,000 per well for the 72 hour treatment group and from 1,500 to 3,000 per well for the 168 hour treatment group, incubated for 24 hours, and then treated with antibodies and ADCs at a concentration of from 0.0051 to 33.33 nM or from 0.0015 to 10.0 nM (three times serial dilutions) and drugs at a concentration of from 0.023 to 50 nM (three times serial dilutions). After 72/168 hours, the number of living cells was quantified using SRB (Sulforhodamine B) dye.

JIMT-1 (HER2 positive) = conditions: JIMT-1 breast cancer cells
Method: as §1

[1] = test system: MCF-7 (HER2 negative to normal); conditions: MCF7 breast cancer cells
Method: as §1

CC[C@H](C)[C@@H]([C@@H](CC(=O)N1CCC[C@H]1[C@H](OC)[C@@H](C)C(=O)N[C@@H](Cc1ccccc1)C(=O)OC)OC)N(C)C(=O)[C@@H](NC(=O)[C@@H](NC)C(C)C)C(C)C [MMAF-OMe] (H-[NMeV]V[Dil][Dolaproine]F-OMe)
CC50 (SK-BR3 (HER2 positive); 72 hr treatment, read-out: CC50 (nM) SK-BR3 72 hr): 0.14 nM
CC50 (SK-BR3 (HER2 positive); 168 hr treatment, read-out: CC50 (nM) SK-BR3 168 hr): 0.06 nM
CC50 (JIMT-1 (HER2 positive); 72 hr treatment, read-out: CC50 (nM) JIMT-1 72 hr): 0.14 nM
CC50 (JIMT-1 (HER2 positive); 168 hr treatment, read-out: CC50 (nM) JIMT-1 168 hr): 0.06 nM
CC50 ([1]; 72 hr treatment, read-out: CC50 (nM) MCF7 72 hr): 0.84 nM
CC50 ([1]; 168 hr treatment, read-out: CC50 (nM) MCF7 168 hr): 0.19 nM
